According to patent US20180098969A1, “HODGKIN LYMPHOMA THERAPY” (Purdue Pharmaceutical Products L.P., priority 2016, published 2018):

Columns and labels:
L428 cells [1] = assay: Orbital tumour mass at injection site in xenografted mice; assay type: in vivo, NSG mice; conditions: after injection
Description: Two independent experiments were performed to investigate the dose-effect of EDO-S101 in NSG mice eight weeks after xenografting with L428 cells as in Example 8. The aim of the protocol shown in FIG. 8B was to evaluate the effect of sequential treatment with a moderate dose of 60 mg/kg given at an interval of three weeks.
Some mice developed an orbital tumour mass at the site of the injection. […] In one mouse only that was treated with two doses of 60 mg/kg of EDO-S101, a regression of the orbital tumour was initially observed followed by re-establishment of the orbital mass 3 weeks later. However, this was the only instance observed of re-establishment of the orbital mass after treatment with EDO-S101 at either concentration.

[2] = tested on: Hodgkin lymphoma cell lines L1236-R100, L1236/DMSO and L1236; assay: Viable cell count and IC50, all three lines; assay type: cell-based, human
Description: (§1) (b) The bendamustine-resistant Hodgkin lymphoma cell line L1236-R100, non-resistant L1236 Hodgkin lymphoma cell line cultured in DMSO L1236/DMSO and L1236 was cultured in the presence of EDO-S101 dissolved in DMSO at concentrations of 0.78 μM, 1.56 μM, 3.12 μM, 6.25 μM and 12.5 μM. Control cells were cultured in the same final concentration of DMSO. The number of viable cells was assessed at 24, 48 and 72 hours through a Countess™ automated cell counter (Invitrogen), each experiment being repeated three times and the results given being the mean of the three results ±SD.

L428 cells [3] = assay: Cytogenetic investigation of cells from xenografted mice; assay type: in vivo, NSG mice; conditions: different doses including single 60 mg/kg
Description: Separated cells were cultured in the presence of RPMI 1640 supplemented with 10% Fetal Calf Serum (FCS) and antibiotics, colcemid (0.1 μg/ml) added 2 h before harvesting, and the slides with metaphase chromosomes prepared following the standard methanol/acetic acid (3/1, v/v) procedure.
Four new cell lines were generated after one month of in vitro culture following 24 hour of exposure to EDO-S101. Fluorescence in situ hybridysation (FISH) was performed using a combination of standard procedures from the recommended protocols for chromosomal analysis, following telomere and centromere staining, using peptide nucleic acid (PNA) probes in order to detect unstable chromosomal aberrations and to delimit the chromosome territory. M-FISH was performed using multi-FISH probes (Metasystems GmbH, Altlussheim, Germany), according to the manufacturer's recommendations on the same slide. Images of hybridized metaphases were captured using a charge coupled device camera (Zeiss, Thornwood, N.Y.) coupled to a Zeiss Axioplan microscope and processed using ISIS software (Metasystems).
The ocular tumour masses were harvested, as well as cells which infiltrated the liver. Five new cell lines were established from ocular tumours and the livers of both control mice (PBS or vehicle). […]

R100 cell line = assay: ATM/ATR transcripts; assay type: cell-based, human; conditions: EDO-S101 alone
Description: 1.56 μM of EDO-S101 was administered to two Hodgkin lymphoma cell lines, the bendamustine naïve cell line L1236 and the bendamustine resistant cell line R100. In a second experiment, Brentuximab Vedotin was administered at a concentration of 3.12 μg/ml to the L1236 cell line and at a concentration of 0.39 μg/ml to the R100 cell line. Finally, in a third experiment EDO-S101 and Brentuximab Vedotin were administered in combination to each of the two cell lines at the same concentrations that they were administered in the monotherapy experiments.

L540 cell = assay: Apoptosis, annexin V-FITC and Hoechst double staining; assay type: cell-based, human; conditions: 5 μM, 24 h and 48 h
Description: (§2) This assay was performed on 7 cell lines (HDLM2 was excluded due to the low number of available cells) at 24 h and 48 h following EDO-S101 treatment (5 μM, DMSO). Control cells were cultured in the same final concentration of DMSO. Only viable cells (using Hoechst staining) were focused on, and all necrotic cells were excluded. Apoptosis was determined using annexin V-FITC and Hoechst (33342) double staining according to the manufacturer's instructions (BD Biosciences). Cell-cycle fractions were determined by Hoechst nuclear staining. Briefly, cells were harvested, washed in PBS, incubated with annexin V-FITC and Hoechst solution for 30 minutes at room temperature. Data were collected using a FACSCalibur flow cytometer (BD Biosciences) and analyzed with FlowJo Version 7.5.5 obtainable from FlowJo, LLC. Results represent the mean value of 3 independent experiments.

[4] = tested on: Hodgkin lymphoma cell lines; assay: as above; assay type: cell-based, human; conditions: 5 μM, 24 h and 48 h, all cells
Description: as §2

L1236-R100 = assay: Viable cell count and IC50, bendamustine-resistant line; assay type: cell-based, human
Description: as §1, with “was cultured in the presence of EDO-S101 dissolved in DMSO at concentrations of 0.78 μM, 1.56 μM, 3.12 μM, 6.25 μM and 12.5 μM.” left out

Compound: Cn1c(CCCCCCC(=O)NO)nc2cc(N(CCCl)CCCl)ccc21 [EDO-S101]
- orbital tumour mass (L428 cells [1]): signification regression
- anti-proliferative activity compared with bendamustine [2]: approximately two orders of magnitude greater than for bendamustine
- metaphases or cell lines from cells of treated mice (L428 cells [3]): not possible to obtain either metaphases from direct culture or establish cell lines
- effect on ATM/ATR unbalance (R100 cell line): upregulating ATR and downregulating ATM transcripts
- sensitivity for apoptosis (L540 cell): higher sensitivity
- sensitivity for apoptosis [4]: high sensitivity
- anti-proliferative activity compared with vorinostat (L1236-R100): greater than that of vorinostat
- viable cells (L1236-R100; 48 hours after treatment with 50 μM): no viable cells being observed
